Results on 22 compounds are retold here after paper PMC6792352, “Limited Chemical Structural Diversity Found to Modulate Thyroid Hormone Receptor in the Tox21 Chemical Library” (Environmental Health Perspectives, 2019).

The test system of data set [1] is GH3-TRE-Luc cell line. As to conditions: read-out: AC50 (uM) modified / 1000, viability, 1 nM T3 present, 24 h.
Data set [2] in a line: in vitro. The following applies: rat, gh3-tre-luc cells, AC50 (uM) modified / 1000.

Where a name gives a salt, the structure may show the parent alone. Read-outs that look alike come from different tables or passages of the source.

`O=Cc1ccccc1C=O` [1,2-Benzenedicarboxaldehyde]: the CC50 in data set [1] (Tox21_110001=Tox21_112347) amounted to 8.06 µM. In data set [2], this compound showed a CC50 at 24 h of 4.89 µM.

For `Nc1ccc(N)cc1` [1,4-Benzenediamine], the CC50 in data set [1] (Tox21_110001=Tox21_302943) stood at 68.9 µM. Moreover, the CC50 at 24 h in data set [2] stood at 68.8 µM.

As to `C=CC(=O)OCCCCCCOC(=O)C=C` [1,6-Hexanediol diacrylate], in data set [1] (Tox21_110001=Tox21_303168), the CC50 worked out at 46.1 µM. For the same compound, the CC50 at 24 h in data set [2] was 57.6 µM.

In the case of `O=[N+]([O-])c1ccc(Cl)c([N+](=O)[O-])c1` [1-Chloro-2,4-dinitrobenzene], the CC50 in data set [1] (Tox21_110001=Tox21_302802) came to 10.1 µM. For the same compound, the CC50 at 24 h in data set [2] came out at 12.5 µM.

In the case of `O=C(Nc1ccccc1SSc1ccccc1NC(=O)c1ccccc1)c1ccccc1` [2,2'-Dibenzoylaminodiphenyl disulfide], the CC50 in data set [1] (Tox21_110001=Tox21_303466) came to 72.6 µM. Moreover, the CC50 at 24 h in data set [2] worked out at 89.8 µM.

With `Cc1cc(Cc2cc(C)cc(C(C)(C)C)c2O)c(O)c(C(C)(C)C)c1` [2,2'-Methylenebis(4-methyl-6-tert-butylphenol)], the CC50 in data set [1] (Tox21_110001=Tox21_302923) was found to be 10.1 µM. In data set [2], the CC50 at 24 h is 11.5 µM.

Consider `Oc1ccc(C(c2ccc(O)cc2)C(Cl)(Cl)Cl)cc1` [2,2-Bis(4-hydroxyphenyl)-1,1,1-trichloroethane], for which the CC50 in data set [1] (Tox21_110001=Tox21_300656) worked out at 55.1 µM. In data set [2], this compound yielded a CC50 at 24 h of 74.8 µM.

`Oc1c(Cl)cc(Cl)c(Cl)c1Cl` [2,3,4,6-Tetrachlorophenol]: the CC50 in data set [1] (Tox21_110001=Tox21_302932) amounted to 64.3 µM. This compound showed a CC50 at 24 h in data set [2] of 71.8 µM.

As for `CC(C)(C)c1cc(C(C)(C)C)c(O)c(C(C)(C)C)c1` [2,4,6-Tris(tert-butyl)phenol], in data set [1] (Tox21_110001=Tox21_300121), the CC50 came out at 28.2 µM. The CC50 at 24 h in data set [2] is 27.4 µM.

Take `CC(C)(C)c1ccc(O)c(C(C)(C)C)c1` [2,4-Di-tert-butylphenol]: the CC50 in data set [1] (Tox21_110001=Tox21_300114) was 29.7 µM. Further, the CC50 at 24 h in data set [2] worked out at 47.6 µM.

Turning to `CCC(C)(C)c1ccc(O)c(C(C)(C)CC)c1` [2,4-Di-tert-pentylphenol], the CC50 in data set [1] (Tox21_110001=Tox21_300090) came out at 12.2 µM. In data set [2], this compound displayed a CC50 at 24 h of 10.5 µM.

In the case of `Nc1ccc(O)c(N)c1` [2,4-Diaminophenol dihydrochloride], the CC50 in data set [1] (Tox21_110001=Tox21_303017) was 45.5 µM. For the same compound, the CC50 at 24 h in data set [2] stood at 41.5 µM.

Turning to `CCc1cc(C(C)(C)C)c(O)c(C(C)(C)C)c1` [2,6-Di-tert-butyl-4-ethylphenol], the CC50 in data set [1] (Tox21_110001=Tox21_303397) worked out at 85.5 µM. In data set [2], this compound returned a CC50 at 24 h of 72.5 µM.

Turning to `c1ccc2sc(SSN3CCOCC3)nc2c1` [2-(Morpholin-4-yldithio)-1,3-benzothiazole], the CC50 in data set [1] (Tox21_110001=Tox21_303278) was determined as 35 µM. The compound also displayed a CC50 at 24 h in data set [2] of 18.6 µM.

With `Nc1cc([N+](=O)[O-])ccc1O` [2-Amino-4-nitrophenol], the CC50 in data set [1] (Tox21_110001=Tox21_302788) amounted to 48.2 µM. In data set [2], this compound came in with a CC50 at 24 h of 62.3 µM.

As for `Cc1cc(N=Nc2ccccc2C)ccc1N` [2-Amino-5-azotoluene], the CC50 in data set [1] (Tox21_110001=Tox21_300300) turned out to be 40.4 µM. In data set [2], this compound came in with a CC50 at 24 h of 50.9 µM.

Turning to `CC[C@]1(O)C[C@@H]2CN(CCc3c([nH]c4ccccc34)[C@@](C(=O)OC)(c3cc4c(cc3OC)N(C)[C@H]3[C@@](O)(C(=O)OC)[C@H](OC(C)=O)[C@]5(CC)C=CCN6CC[C@]43[C@@H]65)C2)C1` [Vinblastine sulfate], the CC50 in data set [1] (Tox21_110001=Tox21_111498) was 0.185 µM; in data set [1] (Tox21_110001=Tox21_112735), 2.29 µM.

Turning to `c1ccc(C(O[C@@H]2CCCN(CCc3ccc4c(c3)OCO4)C2)c2ccccc2)cc1` [Zamifenacin], in data set [1] (Tox21_110001=Tox21_300210), the CC50 was determined as 40 µM.

Take `O=C1Cc2cc(CCN3CCN(c4nsc5ccccc45)CC3)c(Cl)cc2N1` [Ziprasidone]: the CC50 in data set [1] (Tox21_110001=Tox21_113525) turned out to be 15.3 µM.

For the compound `Cc1c(C)c2c(c(C)c1OC(=O)CCC(=O)O)CC[C@@](C)(CCC[C@H](C)CCC[C@H](C)CCCC(C)C)O2` [d-alpha-Tocopheryl succinate], the CC50 in data set [1] (Tox21_110001=Tox21_200568) worked out at 20 µM.

Take `CC[C@H](c1ccc(O)cc1)[C@@H](CC)c1ccc(O)cc1` [meso-Hexestrol]: the CC50 in data set [1] (Tox21_110001=Tox21_110377) was 13.9 µM; in data set [1] (Tox21_110001=Tox21_301456), 47 µM.

In the case of `CC(C)(C)c1cc(O)ccc1O` [tert-Butylhydroquinone], the values for the CC50 in data set [1] (Tox21_110001=Tox21_110007), in data set [1] (Tox21_110001=Tox21_202309) and in data set [1] (Tox21_110001=Tox21_300081) were 7.35 µM, 64.9 µM and 37.7 µM, respectively.
